Test results: patent publication US20250270230A1, “NOVEL SYNTHETIC STEPS FOR THE MANUFACTURING METHOD OF THE PDE4B-INHIBITOR 1-({(5R)-2-[4-(5-CHLOROPYRIMIDINE-2-YL)PIPERIDINE-1-YL]-5-OXIDO-6,7-DIHYDROTHIENO[3,2-D]PYRIMIDINE-4-YL}AMINO)CYCLOBUTYL]METHANOL” (Boehringer Ingelheim International GmbH, priority 2023, published 2025)
Like-named read-outs stand apart in the source and are kept apart here.

Tests used:
[1] = Form conversion from crystalline Form A to Form B followed by Raman spectroscopy; assay type: physicochemical; conditions: 40° C., n-propanol/water, seeding with Form B
Experimental: Form A was charged to the reactor as the starting material. 7.0 VP of n-propanol and […] were used along with Raman probe to confirm the rate of conversion by holding the conversion at different temperature. The rate of form conversion from crystalline Form A to crystalline Form B of the PDE4B-inhibitor of formula XX was studied at 20, 40 and 70° C. with 10% seeding with crystalline Form B seeding crystals.
At 20 or 70° C., the conversion rate was similar, but definitely slower than at 40° C.
The temperature of 40° C. allows a full conversion of crystalline Form A into crystalline Form B in less than 4 hours, preferably even in 2 hours (see also FIGS. 1a and 1b). […] However, the crystallization procedure to yield the Compound of formula XX as crystalline Form B (on production scale) as described in Chapter 3.10 reduces the crystallization time down to not more than 9 hours from the timepoint of seeding, which means a significant improvement in the cycling time.

[2] = Stress test-experiments of the hydrolysis reactions of Intermediate XVII; assay type: physicochemical
Experimental: It is shown, that hydrolysis toward IMP-A occurs at 60° C. and 90° C. (examples 1 and 2). The hydrolysis reaction itself is promoted by titanium residues, as example 2 with 671 mg/kg titanium leads to higher impurity levels of IMP-A compared to example 1, which has a lower titanium content (<251 mg/kg).
It is shown, that hydrolysis toward IMP-A occurs at 60° C. and 90° C. (examples 1 and 2). The hydrolysis reaction itself is promoted by titanium residues, as example 2 with 671 mg/kg titanium content leads to higher impurity levels of IMP-A compared to example 1, which has a lower titanium content (<251 mg/kg).

[3] = Long-term stability of water-free material regarding hydrolysis side-reactions; assay type: physicochemical; conditions: water-free form (recrystallization variant A, 1,4-dioxane)
Source text: For example with the additional recrystallization step according to variant A (recrystallization from 1,4-dioxane) Intermediate XVIII is obtained as a water-free form (examples 1 and 2). The water-free material is long-term stable (>12 months) regarding hydrolysis side-reactions, which can occur at two positions of Intermediate XVII by forming IMP-A and IMP-B (see Scheme 5).
In comparison to the process as described in U.S. Pat. No. 8,609,670B, the additional recrystallization step after the enantioselective oxidation step according to variant A yielding Intermediate XVIII also improves the quality of the sulfoxide XVII critically. Hereby, Intermediate XVIII is obtained as a water-free form. The water-free material is long-term stable (>12 months) regarding hydrolysis side-reactions, which can occur at two positions of Intermediate XVII by forming the impurities IMP-A and IMP-B (see Scheme 14).

[4] = Storage stability of intermediates at room temperature; assay type: physicochemical
Source text: The alternative synthesis method to manufacture Intermediate VIII has several advantages over the method of manufacturing Intermediate VIII (or Intermediate G as it is called in U.S. Pat. No. […]): • The new Suzuki-reaction process offers much better control of impurities by avoiding the formation of N-methylation at the piperidine ring. The methylation of the piperidine-ring occurs in the original process according to U.S. Pat. No. 8,609,670 during the use of methanol and 4M hydrochloric acid in 1,4-dioxane and takes place via the in situ formed cancerogenic compound methyl chloride. […] 0.05 m % (0.02 mol %) Pd(amphos)2Cl2 is sufficient for the Suzuki cross-coupling reaction to complete the conversion in less than 3 hours. In literature, significant higher amounts of Pd-catalyst have been described so far [a) K.-T.-Wong et al, Org. […] Second, the reproducibility of yield and quality is very high and consistent as observed on production scale over several batches. […]

PDE4B subunit = PDE4B subunit (Homo sapiens, UniProt Q07343); conditions: cited from earlier work
Sequence of PDE4B subunit (Q07343 whole entry): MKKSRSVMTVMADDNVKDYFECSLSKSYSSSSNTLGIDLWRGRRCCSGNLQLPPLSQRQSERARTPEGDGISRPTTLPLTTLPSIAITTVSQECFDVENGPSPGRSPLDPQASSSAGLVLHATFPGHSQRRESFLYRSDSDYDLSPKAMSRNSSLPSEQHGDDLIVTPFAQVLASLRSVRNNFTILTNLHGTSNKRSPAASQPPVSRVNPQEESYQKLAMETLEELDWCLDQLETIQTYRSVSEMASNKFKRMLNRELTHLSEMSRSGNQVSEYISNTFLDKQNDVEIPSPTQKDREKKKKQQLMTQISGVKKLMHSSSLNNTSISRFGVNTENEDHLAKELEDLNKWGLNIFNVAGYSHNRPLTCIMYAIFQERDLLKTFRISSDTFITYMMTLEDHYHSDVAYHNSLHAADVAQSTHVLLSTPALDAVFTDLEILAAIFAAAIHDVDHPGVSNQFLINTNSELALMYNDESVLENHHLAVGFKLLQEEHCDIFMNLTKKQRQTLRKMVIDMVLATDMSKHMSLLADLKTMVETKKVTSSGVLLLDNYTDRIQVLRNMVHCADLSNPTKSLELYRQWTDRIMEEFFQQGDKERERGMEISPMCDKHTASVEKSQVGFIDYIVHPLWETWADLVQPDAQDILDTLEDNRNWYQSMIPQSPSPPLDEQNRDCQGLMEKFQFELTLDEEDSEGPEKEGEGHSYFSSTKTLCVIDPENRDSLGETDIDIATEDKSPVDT

[5] = test system: patients with idiopathic pulmonary fibrosis (IPF); conditions: Phase II, cited from earlier work
[6] = Competitive slurries containing Form A, Form B and Form C (thermodynamic stability); assay type: physicochemical
Experimental: Few other crystalline forms were observed during the initial and extended solid form screening by using various techniques. […] Its thermodynamic stability has been confirmed by competitive slurries containing Form A, Form B and Form C. Form B was the predominant form in all solvents and temperature conditions, except for the solvent water (with a water activity of 1) at temperatures between 5 and 25° C. which yielded Form C.

[7] = batch Example 1, Ti content <251 mg/kg
[8] = batch Example 2, Ti content 671 mg/kg

[O-][S@+]1CCc2nc(N3CCC(c4ncc(Cl)cn4)CC3)nc(NC3(CO)CCC3)c21 [Form A]
time for full conversion of crystalline Form A into crystalline Form B [1]: less than 4 hours

[O-][S@+]1CCc2nc(Cl)nc(NC3(CO)CCC3)c21 [Intermediate XVII, 1-[[(5R)-2-chloro-6,7-dihydro-5-oxidothieno[3,2-d]pyrimidin-4-yl]amino]-cyclobutanemethanol]
IMP-A content in XVII after 1 week at 60° C. [2, 7]: 0.13%
IMP-A content in XVII after 1 week at 90° C. [2, 7]: 0.16%
IMP-A content in XVII at t = 0 [2, 7]: 0.10%
IMP-B content in XVII after 1 week at 60° C. [2, 7]: 0.05%
IMP-B content in XVII after 1 week at 90° C. [2, 7]: 0.34%
IMP-B content in XVII at t = 0 [2, 7]: <0.05%
IMP-A content in XVII after 1 week at 60° C. [2, 8]: 0.19%
IMP-A content in XVII after 1 week at 90° C. [2, 8]: 0.32%
IMP-A content in XVII at t = 0 [2, 8]: <0.05%
IMP-B content in XVII after 1 week at 60° C. [2, 8]: <0.05%
IMP-B content in XVII after 1 week at 90° C. [2, 8]: 0.54%
IMP-B content in XVII at t = 0 [2, 8]: <0.05%

[O-][S@+]1CCc2nc(Cl)nc(NC3(CO)CCC3)c21 [Intermediate XVIII]
long-term stability regarding hydrolysis side-reactions [3]: > 12 months

CC(C)(C)OC(=O)N1CC=C(c2ncc(Cl)cn2)CC1 [Intermediate VI]
storage stability [4]: stable for storage at room temperature

[O-][S@+]1CCc2nc(N3CCC(c4ncc(Cl)cn4)CC3)nc(NC3(CO)CCC3)c21 [Compound XX, 1-({(5R)-2-[4-(5-CHLOROPYRIMIDINE-2-YL)PIPERIDINE-1-YL]-5-OXIDO-6,7-DIHYDROTHIENO[3,2-D]PYRIMIDINE-4-YL}AMINO)CYCLOBUTYL]METHANOL]
PDE4 subunit preference (PDE4B subunit): preferentially inhibits the PDE4B subunit
lung function decline ([5]; IPF patients already taking approved antifibrotics (Nintedanib or Pirfenidon) as background): reduction in lung function decline could be observed
lung function decline ([5]; IPF patients not on approved antifibrotics as background treatment): reduction in lung function decline could be observed
rate of lung function decline ([5]; IPF patients, within 12 weeks of treatment): reduction in the rate of lung function decline

[O-][S@+]1CCc2nc(N3CCC(c4ncc(Cl)cn4)CC3)nc(NC3(CO)CCC3)c21 [Form B]
thermodynamic stability of crystalline form [6]: thermodynamically most stable form
